Laboratory results published in ChEMBL document CHEMBL3044736, “Synthesis, characterization, solvatochromic properties, and antimicrobial evaluation of 5-acetyl-2-thioxo-dihydro-pyrimidine-4,6-dione-based chalcones” (2013).
Values after ≈ are worked out from the molar mass of the structure shown.

Experiments:
Type in all cases: functional
Aspergillus clavatus [1] = assay: Antimicrobial activity against Aspergillus clavatus MTCC 1323 assessed as diameter of growth inhibition zone at 100 ug/ml after 48-96 hr by agar cup diffusion method; conditions: read-out: DIZ
Penicillium [2] = assay: Antimicrobial activity against Penicillium wild strain assessed as diameter of growth inhibition zone at 250 ug/ml after 48-96 hr by agar cup diffusion method; conditions: read-out: DIZ
Aspergillus clavatus [3] = assay: Antimicrobial activity against Aspergillus clavatus MTCC 1323 assessed as diameter of growth inhibition zone at 25 ug/ml after 48-96 hr by agar cup diffusion method; conditions: read-out: DIZ
Penicillium [4] = assay: Antimicrobial activity against Penicillium wild strain assessed as diameter of growth inhibition zone at 25 ug/ml after 48-96 hr by agar cup diffusion method; conditions: read-out: DIZ
Pseudomonas aeruginosa [5] = assay: Antimicrobial activity against Pseudomonas aeruginosa MTCC 1688 assessed as diameter of growth inhibition zone at 50 ug/ml after 18-24 hr by agar cup diffusion method; conditions: read-out: DIZ
Candida albicans [6] = assay: Antimicrobial activity against Candida albicans MTCC 227 assessed as diameter of growth inhibition zone at 25 ug/ml after 48-96 hr by agar cup diffusion method; conditions: read-out: DIZ
Streptococcus pyogenes [7] = assay: Antimicrobial activity against Streptococcus pyogenes MTCC 442 assessed as diameter of growth inhibition zone at 250 ug/ml after 18-24 hr by agar cup diffusion method; conditions: read-out: DIZ
Escherichia coli [8] = assay: Antimicrobial activity against Escherichia coli MTCC 443 assessed as diameter of growth inhibition zone at 250 ug/ml after 18-24 hr by agar cup diffusion method; conditions: read-out: DIZ
Aspergillus clavatus [9] = assay: Antimicrobial activity against Aspergillus clavatus MTCC 1323 by agar cup diffusion method
Pseudomonas aeruginosa [10] = assay: Antimicrobial activity against Pseudomonas aeruginosa MTCC 1688 by agar cup diffusion method
Staphylococcus aureus [11] = assay: Antimicrobial activity against Staphylococcus aureus MTCC 96 assessed as diameter of growth inhibition zone at 250 ug/ml after 18-24 hr by agar cup diffusion method; conditions: read-out: DIZ
Staphylococcus aureus [12] = assay: Antimicrobial activity against Staphylococcus aureus MTCC 96 assessed as diameter of growth inhibition zone at 25 ug/ml after 18-24 hr by agar cup diffusion method; conditions: read-out: DIZ
Streptococcus pyogenes [13] = assay: Antimicrobial activity against Streptococcus pyogenes MTCC 442 assessed as diameter of growth inhibition zone at 100 ug/ml after 18-24 hr by agar cup diffusion method; conditions: read-out: DIZ
Staphylococcus aureus [14] = assay: Antimicrobial activity against Staphylococcus aureus MTCC 96 assessed as diameter of growth inhibition zone at 50 ug/ml after 18-24 hr by agar cup diffusion method; conditions: read-out: DIZ
Escherichia coli [15] = assay: Antimicrobial activity against Escherichia coli MTCC 443 assessed as diameter of growth inhibition zone at 25 ug/ml after 18-24 hr by agar cup diffusion method; conditions: read-out: DIZ
Aspergillus clavatus [16] = assay: Antimicrobial activity against Aspergillus clavatus MTCC 1323 assessed as diameter of growth inhibition zone at 250 ug/ml after 48-96 hr by agar cup diffusion method; conditions: read-out: DIZ
Klebsiella pneumoniae [17] = assay: Antimicrobial activity against Klebsiella pneumoniae MTCC 109 assessed as diameter of growth inhibition zone at 50 ug/ml after 18-24 hr by agar cup diffusion method; conditions: read-out: DIZ
Trichophyton rubrum [18] = assay: Antimicrobial activity against Trichophyton rubrum MTCC 296 by agar cup diffusion method
Penicillium [19] = assay: Antimicrobial activity against Penicillium wild strain assessed as diameter of growth inhibition zone at 50 ug/ml after 48-96 hr by agar cup diffusion method; conditions: read-out: DIZ
Aspergillus clavatus [20] = assay: Antimicrobial activity against Aspergillus clavatus MTCC 1323 assessed as diameter of growth inhibition zone at 50 ug/ml after 48-96 hr by agar cup diffusion method; conditions: read-out: DIZ
Candida albicans [21] = assay: Antimicrobial activity against Candida albicans MTCC 227 assessed as diameter of growth inhibition zone at 250 ug/ml after 48-96 hr by agar cup diffusion method; conditions: read-out: DIZ
Escherichia coli [22] = assay: Antimicrobial activity against Escherichia coli MTCC 443 assessed as diameter of growth inhibition zone at 50 ug/ml after 18-24 hr by agar cup diffusion method; conditions: read-out: DIZ
Klebsiella pneumoniae [23] = assay: Antimicrobial activity against Klebsiella pneumoniae MTCC 109 assessed as diameter of growth inhibition zone at 250 ug/ml after 18-24 hr by agar cup diffusion method; conditions: read-out: DIZ
Candida albicans [24] = assay: Antimicrobial activity against Candida albicans MTCC 227 by agar cup diffusion method
Klebsiella pneumoniae [25] = assay: Antimicrobial activity against Klebsiella pneumoniae MTCC 109 assessed as diameter of growth inhibition zone at 100 ug/ml after 18-24 hr by agar cup diffusion method; conditions: read-out: DIZ
Penicillium [26] = assay: Antimicrobial activity against Penicillium wild strain assessed as diameter of growth inhibition zone at 100 ug/ml after 48-96 hr by agar cup diffusion method; conditions: read-out: DIZ
Escherichia coli [27] = assay: Antimicrobial activity against Escherichia coli MTCC 443 by agar cup diffusion method
Trichophyton rubrum [28] = assay: Antimicrobial activity against Trichophyton rubrum MTCC 296 assessed as diameter of growth inhibition zone at 100 ug/ml after 48-96 hr by agar cup diffusion method; conditions: read-out: DIZ
Klebsiella pneumoniae [29] = assay: Antimicrobial activity against Klebsiella pneumoniae MTCC 109 by agar cup diffusion method
Staphylococcus aureus [30] = assay: Antimicrobial activity against Staphylococcus aureus MTCC 96 by agar cup diffusion method
Trichophyton rubrum [31] = assay: Antimicrobial activity against Trichophyton rubrum MTCC 296 assessed as diameter of growth inhibition zone at 25 ug/ml after 48-96 hr by agar cup diffusion method; conditions: read-out: DIZ
Escherichia coli [32] = assay: Antimicrobial activity against Escherichia coli MTCC 443 assessed as diameter of growth inhibition zone at 100 ug/ml after 18-24 hr by agar cup diffusion method; conditions: read-out: DIZ
Penicillium [33] = assay: Antimicrobial activity against Penicillium wild strain by agar cup diffusion method
Streptococcus pyogenes [34] = assay: Antimicrobial activity against Streptococcus pyogenes MTCC 442 assessed as diameter of growth inhibition zone at 50 ug/ml after 18-24 hr by agar cup diffusion method; conditions: read-out: DIZ
Pseudomonas aeruginosa [35] = assay: Antimicrobial activity against Pseudomonas aeruginosa MTCC 1688 assessed as diameter of growth inhibition zone at 25 ug/ml after 18-24 hr by agar cup diffusion method; conditions: read-out: DIZ
Klebsiella pneumoniae [36] = assay: Antimicrobial activity against Klebsiella pneumoniae MTCC 109 assessed as diameter of growth inhibition zone at 25 ug/ml after 18-24 hr by agar cup diffusion method; conditions: read-out: DIZ
Candida albicans [37] = assay: Antimicrobial activity against Candida albicans MTCC 227 assessed as diameter of growth inhibition zone at 100 ug/ml after 48-96 hr by agar cup diffusion method; conditions: read-out: DIZ
Trichophyton rubrum [38] = assay: Antimicrobial activity against Trichophyton rubrum MTCC 296 assessed as diameter of growth inhibition zone at 250 ug/ml after 48-96 hr by agar cup diffusion method; conditions: read-out: DIZ
Candida albicans [39] = assay: Antimicrobial activity against Candida albicans MTCC 227 assessed as diameter of growth inhibition zone at 50 ug/ml after 48-96 hr by agar cup diffusion method; conditions: read-out: DIZ
Streptococcus pyogenes [40] = assay: Antimicrobial activity against Streptococcus pyogenes MTCC 442 by agar cup diffusion method
Trichophyton rubrum [41] = assay: Antimicrobial activity against Trichophyton rubrum MTCC 296 assessed as diameter of growth inhibition zone at 50 ug/ml after 48-96 hr by agar cup diffusion method; conditions: read-out: DIZ
Staphylococcus aureus [42] = assay: Antimicrobial activity against Staphylococcus aureus MTCC 96 assessed as diameter of growth inhibition zone at 100 ug/ml after 18-24 hr by agar cup diffusion method; conditions: read-out: DIZ
Streptococcus pyogenes [43] = assay: Antimicrobial activity against Streptococcus pyogenes MTCC 442 assessed as diameter of growth inhibition zone at 25 ug/ml after 18-24 hr by agar cup diffusion method; conditions: read-out: DIZ
Pseudomonas aeruginosa [44] = assay: Antimicrobial activity against Pseudomonas aeruginosa MTCC 1688 assessed as diameter of growth inhibition zone at 250 ug/ml after 18-24 hr by agar cup diffusion method; conditions: read-out: DIZ
Pseudomonas aeruginosa [45] = assay: Antimicrobial activity against Pseudomonas aeruginosa MTCC 1688 assessed as diameter of growth inhibition zone at 100 ug/ml after 18-24 hr by agar cup diffusion method; conditions: read-out: DIZ

For `O=C(/C=C/c1ccccc1)C1C(=O)NC(=S)NC1=O`, the zone of inhibition at 100 µg/mL (Aspergillus clavatus [1]) was 21 mm, the zone of inhibition at 250 µg/mL (Penicillium [2]) was 24 mm and the zone of inhibition at 25 µg/mL (Aspergillus clavatus [3]) was 18 mm. The zone of inhibition at 25 µg/mL (Penicillium [4]) was 19 mm, the zone of inhibition at 50 µg/mL (Pseudomonas aeruginosa [5]) was 13 mm and the zone of inhibition at 25 µg/mL (Candida albicans [6]) was 16 mm. For the same compound, the zone of inhibition at 250 µg/mL (Streptococcus pyogenes [7]) was 17 mm, the zone of inhibition at 250 µg/mL (Escherichia coli [8]) was 17 mm and the MFC (Aspergillus clavatus [9]) was 1000 µg/mL (≈ 3650 µM). It also gave an MIC (Aspergillus clavatus [9]) of 1000 µg/mL (≈ 3650 µM), an MBC (Pseudomonas aeruginosa [10]) of 250 µg/mL (≈ 911 µM) and an MIC (Pseudomonas aeruginosa [10]) of 250 µg/mL (≈ 911 µM). It also gave a zone of inhibition at 250 µg/mL (Staphylococcus aureus [11]) of 17 mm, a zone of inhibition at 25 µg/mL (Staphylococcus aureus [12]) of 10 mm and a zone of inhibition at 100 µg/mL (Streptococcus pyogenes [13]) of 15 mm. The zone of inhibition at 50 µg/mL (Staphylococcus aureus [14]) was 13 mm, the zone of inhibition at 25 µg/mL (Escherichia coli [15]) was 12 mm and the zone of inhibition at 250 µg/mL (Aspergillus clavatus [16]) was 24 mm. It also gave a zone of inhibition at 50 µg/mL (Klebsiella pneumoniae [17]) of 12 mm, an MFC (Trichophyton rubrum [18]) of 1000 µg/mL (≈ 3650 µM) and an MIC (Trichophyton rubrum [18]) of 1000 µg/mL (≈ 3650 µM). The zone of inhibition at 50 µg/mL (Penicillium [19]) was 21 mm, the zone of inhibition at 50 µg/mL (Aspergillus clavatus [20]) was 19 mm and the zone of inhibition at 250 µg/mL (Candida albicans [21]) was 22 mm. The zone of inhibition at 50 µg/mL (Escherichia coli [22]) was 15 mm, the zone of inhibition at 250 µg/mL (Klebsiella pneumoniae [23]) was 17 mm and the MFC (Candida albicans [24]) was 1000 µg/mL (≈ 3650 µM). The MIC (Candida albicans [24]) was 500 µg/mL (≈ 1820 µM), the zone of inhibition at 100 µg/mL (Klebsiella pneumoniae [25]) was 14 mm and the zone of inhibition at 100 µg/mL (Penicillium [26]) was 22 mm. It also gave an MBC (Escherichia coli [27]) of 500 µg/mL (≈ 1820 µM), an MIC (Escherichia coli [27]) of 250 µg/mL (≈ 911 µM) and a zone of inhibition at 100 µg/mL (Trichophyton rubrum [28]) of 24 mm. The MBC (Klebsiella pneumoniae [29]) was 250 µg/mL (≈ 911 µM), the MIC (Klebsiella pneumoniae [29]) was 200 µg/mL (≈ 729 µM) and the MBC (Staphylococcus aureus [30]) was 250 µg/mL (≈ 911 µM). It also gave an MIC (Staphylococcus aureus [30]) of 250 µg/mL (≈ 911 µM), a zone of inhibition at 25 µg/mL (Trichophyton rubrum [31]) of 20 mm and a zone of inhibition at 100 µg/mL (Escherichia coli [32]) of 15 mm. The MFC (Penicillium [33]) was > 1000 µg/mL, the MIC (Penicillium [33]) was 1000 µg/mL (≈ 3650 µM) and the zone of inhibition at 50 µg/mL (Streptococcus pyogenes [34]) was 15 mm. It also gave a zone of inhibition at 25 µg/mL (Pseudomonas aeruginosa [35]) of 10 mm, a zone of inhibition at 25 µg/mL (Klebsiella pneumoniae [36]) of 10 mm and a zone of inhibition at 100 µg/mL (Candida albicans [37]) of 22 mm. The zone of inhibition at 250 µg/mL (Trichophyton rubrum [38]) was 25 mm, the zone of inhibition at 50 µg/mL (Candida albicans [39]) was 18 mm and the MBC (Streptococcus pyogenes [40]) was 500 µg/mL (≈ 1820 µM). The MIC (Streptococcus pyogenes [40]) was 250 µg/mL (≈ 911 µM), the zone of inhibition at 50 µg/mL (Trichophyton rubrum [41]) was 24 mm and the zone of inhibition at 100 µg/mL (Staphylococcus aureus [42]) was 15 mm. The zone of inhibition at 25 µg/mL (Streptococcus pyogenes [43]) was 12 mm, the zone of inhibition at 250 µg/mL (Pseudomonas aeruginosa [44]) was 17 mm and the zone of inhibition at 100 µg/mL (Pseudomonas aeruginosa [45]) was 15 mm.
